Values quoted from earlier work as cited in patent publication US20090186826A1, “Cosmetic or dermopharmaceutical compositions of ceramides and polypeptides” (SEDERMA, priority 2003, published 2009).
Where no end group is shown, it is not given here.

System: fibroblasts
Details: reported by Senior et al. J. Cell Biol. 99, 870-874, 1984

For “VGVAPG [fragment of the protein called elastin]”, the chemotactic activity is given as “chemotactic activity”.
